The values that follow come from patent US10717799B2, “Copolymers as excipients for effective solubilization of poorly water-soluble substances from solid mixtures” (Dow Global Technologies LLC, priority 2015, dated 2020).

Series [1] can be described thus: Supersaturation (maintenance) test with Nilutamide. Conditions: phosphate buffer saline with 0.5 wt. % FaSSIF, 37 °C, pH 6.5, aqueous with cosolvent or surfactant or cyclodextrin, kinetic from dmso stock.
Series [2] can be described thus: physchem. The following applies: 37 °C, pH 6.5, aqueous with cosolvent or surfactant or cyclodextrin, kinetic from dmso stock.
Series [3] in a line: physchem. Conditions: 37 °C, pH 6.5, fassif, thermodynamic from solid.
The conditions of series [4]: pH 6.5.
For series [5] the following is noted: pH 6.5. The source holds these as a separate data set.
The conditions of series [6]: pH 6.5. This is another data set of the same source.

Values after ≈ are worked out from the molar mass of the structure shown.

In series [1], `CC1(C)NC(=O)N(c2ccc([N+](=O)[O-])c(C(F)(F)F)c2)C1=O` [Nilutamide] had a solubility at 30 min of 473 µg/mL (≈ 1490 µM), a solubility at 90 min of 364 µg/mL (≈ 1150 µM) and a solubility at 180 min of 308 µg/mL (≈ 971 µM).
In series [2], `O=C1NC(=O)C(c2ccccc2)(c2ccccc2)N1` [Phenytoin] yielded a solubility at 30 min of 75 µg/mL (≈ 297 µM), a solubility at 90 min of 70 µg/mL (≈ 277 µM) and a solubility at 180 min of 73 µg/mL (≈ 289 µM). The same compound returned a solubility at 4 min in series [3] of around 50 µg/mL (≈ 198 µM).
Turning to “poly-[(N,N-diethylacrylamide)-co-(N,N-dimethylacrylamide)] [Example 5-1]”, in series [4], the “c(30 min) concentration of solubilized Phenytoin” value was determined as 172 mg/L, the “c(90 min) concentration of solubilized Phenytoin” value is given as 197 mg/L and the “c(180 min) concentration of solubilized Phenytoin” value was 137 mg/L.
Taken in the same sequence, the figures for “poly-[(N,N-diethylacrylamide)-co-(N,N-dimethylacrylamide)] [Example 5-2]” were 319 mg/L, 322 mg/L and 223 mg/L.
Taken in the same sequence, the figures for “poly-[(N,N-diethylacrylamide)-co-(N,N-dimethylacrylamide)] [Example 5-3]” were 595 mg/L, 413 mg/L and 257 mg/L.
Take “poly-[(N,N-diethylacrylamide)-co-(N,N-dimethylacrylamide)] [Example 5-4]”: in series [4], the “c(30 min) concentration of solubilized Phenytoin” value was 646 mg/L, the “c(90 min) concentration of solubilized Phenytoin” value is reported as 667 mg/L and the “c(180 min) concentration of solubilized Phenytoin” value amounted to 591 mg/L.
As for “poly-[(N,N-diethylacrylamide)-co-(N,N-dimethylacrylamide)] [Example 5-5]”, in series [4], the “c(30 min) concentration of solubilized Phenytoin” value came to 348 mg/L, the “c(90 min) concentration of solubilized Phenytoin” value was found to be 359 mg/L and the “c(180 min) concentration of solubilized Phenytoin” value was determined as 295 mg/L.
In the case of “poly-[(N-isopropylacrylamide)-co-(N,N-dimethylacrylamide)] [Example 1-1]”, in series [4], the “c(30 min) concentration of solubilized Phenytoin” value is given as 1,208 mg/L, the “c(90 min) concentration of solubilized Phenytoin” value is listed as 1,024 mg/L and the “c(180 min) concentration of solubilized Phenytoin” value was 1,104 mg/L.
Consider “poly-[(N-isopropylacrylamide)-co-(N,N-dimethylacrylamide)] [Example 1-3]”, for which, in series [4], the “c(30 min) concentration of solubilized Phenytoin” value is given as 992 mg/L, the “c(90 min) concentration of solubilized Phenytoin” value is recorded as 794 mg/L and the “c(180 min) concentration of solubilized Phenytoin” value was found to be 876 mg/L.
Consider “poly-[(N-isopropylacrylamide)-co-(N,N-dimethylacrylamide)] [Example 1-4]”, for which, in series [4], the “c(30 min) concentration of solubilized Phenytoin” value is given as 1,066 mg/L, the “c(90 min) concentration of solubilized Phenytoin” value was 758 mg/L and the “c(180 min) concentration of solubilized Phenytoin” value was 936 mg/L.
With “poly-[(N-isopropylacrylamide)-co-(N,N-dimethylacrylamide)] [Example 1-5]”, in series [4], the “c(30 min) concentration of solubilized Phenytoin” value is listed as 942 mg/L, the “c(90 min) concentration of solubilized Phenytoin” value came to 759 mg/L and the “c(180 min) concentration of solubilized Phenytoin” value worked out at 823 mg/L.
Taken in the same sequence, the figures for “poly-[(N-isopropylacrylamide)-co-(N,N-dimethylacrylamide)] [Example 1-6]” were 962 mg/L, 649 mg/L and 875 mg/L.
On to “poly-[(N-isopropylacrylamide)-co-(N,N-dimethylacrylamide)] [Example 1-7]”, for which, in series [4], the “c(30 min) concentration of solubilized Phenytoin” value came to 156 mg/L, the “c(90 min) concentration of solubilized Phenytoin” value was found to be 137 mg/L and the “c(180 min) concentration of solubilized Phenytoin” value was 145 mg/L.
On the same counts, the results for “poly-[(N-isopropylacrylamide)-co-(N,N-dimethylacrylamide)] [Example 1-8]” are 183 mg/L, 173 mg/L and 184 mg/L.
As for “poly-[(N-isopropylacrylamide)-co-(N,N-dimethylacrylamide)] [Example 1-9]”, in series [4], the “c(30 min) concentration of solubilized Phenytoin” value is 301 mg/L, the “c(90 min) concentration of solubilized Phenytoin” value is on record as 266 mg/L and the “c(180 min) concentration of solubilized Phenytoin” value was determined as 265 mg/L.
“poly-[(N-isopropylacrylamide)-co-(N,N-dimethylacrylamide)] [Example 1-10]”: in series [4], the “c(30 min) concentration of solubilized Phenytoin” value worked out at 392 mg/L, the “c(90 min) concentration of solubilized Phenytoin” value was determined as 281 mg/L and the “c(180 min) concentration of solubilized Phenytoin” value is 255 mg/L.
Take “poly-[(N-isopropylacrylamide)-co-(N,N-dimethylacrylamide)] [Example 1-11]”: in series [4], the “c(30 min) concentration of solubilized Phenytoin” value was found to be 895 mg/L, the “c(90 min) concentration of solubilized Phenytoin” value was 343 mg/L and the “c(180 min) concentration of solubilized Phenytoin” value was found to be 300 mg/L.
Consider “poly-[(N-isopropylacrylamide)-co-(N,N-dimethylacrylamide)] [Example 1-15]”, for which, in series [4], the “c(30 min) concentration of solubilized Phenytoin” value was determined as 479 mg/L, the “c(90 min) concentration of solubilized Phenytoin” value is recorded as 455 mg/L and the “c(180 min) concentration of solubilized Phenytoin” value worked out at 409 mg/L. Further, in series [5], the “c(30 min) concentration of solubilized Nilutamide” value came out at 828 mg/L, the “c(90 min) concentration of solubilized Nilutamide” value is given as 833 mg/L and the “c(180 min) concentration of solubilized Nilutamide” value was 848 mg/L.
Turning to “poly-[(N-isopropylacrylamide)-co-(N,N-dimethylacrylamide)] [Example 1-16]”, in series [4], the “c(30 min) concentration of solubilized Phenytoin” value worked out at 413 mg/L, the “c(90 min) concentration of solubilized Phenytoin” value is recorded as 379 mg/L and the “c(180 min) concentration of solubilized Phenytoin” value is recorded as 407 mg/L.
Consider “poly-[(N-isopropylacrylamide)-co-(N,N-dimethylacrylamide)] [Example 1-17]”, for which the “solubilized drug concentration after continuous decrease” value in series [6] was “below 200 mg/L”.

As a reminder, the solubility is the dissolved amount per volume that the medium holds.
